#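 Protocol summary: plate cells (96-well), add compound at 5 concentrations, incubate 48 h, interpolate endpoints linearly. Here, GI50 denotes the concentration required for 50% inhibition of growth.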 Calls of active or inactive are those of the source. No stated cut-off is given here; in the data, active = GI50 up to about 1.1 µM and inactive = higher.
# Key:
# Test in all cases: NCI anticancer screen, dose series, 48 h
# BT-549 = test system: BT-549
# SF-539 = test system: SF-539
# HOP-62 = test system: HOP-62
# SW-620 = test system: SW-620
# SK-MEL-5 = test system: SK-MEL-5
# ACHN = test system: ACHN
# Malme-3M = test system: Malme-3M
# CCRF-CEM = test system: CCRF-CEM
# M14 = test system: M14
# HCT-116 = test system: HCT-116
# KM12 = test system: KM12
# A498 = test system: A498
# NCI-H460 = test system: NCI-H460
# IGROV-1 = test system: IGROV-1
# OVCAR-5 = test system: OVCAR-5
# UACC-62 = test system: UACC-62
# A549 = test system: A549
# HCT-15 = test system: HCT-15
# MOLT-4 = test system: MOLT-4
# NCI-H23 = test system: NCI-H23
Structure (SMILES),GI50 (BT-549),GI50 (SF-539),GI50 (HOP-62),GI50 (SW-620),GI50 (SK-MEL-5),GI50 (ACHN),GI50 (Malme-3M),GI50 (CCRF-CEM),GI50 (M14),GI50 (HCT-116),GI50 (KM12),GI50 (A498),GI50 (NCI-H460),GI50 (IGROV-1),GI50 (OVCAR-5),GI50 (UACC-62),GI50 (A549),GI50 (HCT-15),GI50 (MOLT-4),GI50 (NCI-H23)
COc1cc(C(c2cc3c(cc2O)OCO3)N2CCCCC2)cc(OC)c1OC (stereo not given),12 µM (inactive),17.9 µM (inactive),30 µM (inactive),4.57 µM (inactive),19.1 µM (inactive),17.1 µM (inactive),12.8 µM (inactive),1.85 µM (inactive),6.28 µM (inactive),15.4 µM (inactive),18.2 µM (inactive),19.5 µM (inactive),21.8 µM (inactive),17.7 µM (inactive),17.8 µM (inactive),16.4 µM (inactive),20.9 µM (inactive),15.9 µM,2.15 µM (inactive),15.2 µM (inactive)
[N-]=[N+]=C(C(=O)OCC#CCOC(=O)C(=[N+]=[N-])S(=O)(=O)c1ccccc1)S(=O)(=O)c1ccccc1,> 10 µM (inactive),> 10 µM (inactive),> 10 µM (inactive),> 10 µM (inactive),> 10 µM (inactive),> 10 µM (inactive),> 10 µM (inactive),> 10 µM (inactive),> 10 µM (inactive),> 10 µM (inactive),> 10 µM (inactive),> 10 µM (inactive),> 10 µM (inactive),> 10 µM (inactive),> 10 µM (inactive),> 10 µM (inactive),> 10 µM (inactive),> 10 µM,> 10 µM (inactive),> 10 µM (inactive)
ONCCCn1cnc2c(NC3CC3)ncnc21,> 100 µM (inactive),> 100 µM (inactive),> 100 µM (inactive),> 100 µM (inactive),> 100 µM (inactive),> 100 µM (inactive),> 100 µM (inactive),> 100 µM (inactive),> 100 µM (inactive),> 100 µM (inactive),> 100 µM (inactive),> 100 µM (inactive),> 100 µM (inactive),> 100 µM (inactive),> 100 µM (inactive),> 100 µM (inactive),> 100 µM (inactive),> 100 µM,> 100 µM (inactive),> 100 µM (inactive)
CC1(C)OCC(C2OC(OC(=O)c3ccc([N+](=O)[O-])cc3)C3OC(C)(C)OC23)O1 (stereo not given),> 100 µM (inactive),> 100 µM (inactive),27.3 µM (inactive),> 100 µM (inactive),> 100 µM (inactive),60.5 µM (inactive),> 100 µM (inactive),> 100 µM (inactive),> 100 µM (inactive),> 100 µM (inactive),> 100 µM (inactive),> 100 µM (inactive),> 100 µM (inactive),> 100 µM (inactive),> 100 µM (inactive),> 100 µM (inactive),> 100 µM (inactive),> 100 µM,> 100 µM (inactive),> 100 µM (inactive)
O=c1oc2nc(-c3ccccc3)cc(C(F)(F)F)c2n1Cc1ccccc1,19.7 µM (inactive),7.5 µM (inactive),12.2 µM (inactive),6.5 µM (inactive),5.42 µM (inactive),11.7 µM (inactive),1.89 µM (inactive),7.21 µM (inactive),4.33 µM (inactive),3.13 µM (inactive),2.84 µM (inactive),2.07 µM (inactive),> 100 µM (inactive),13.4 µM (inactive),> 100 µM (inactive),4.24 µM (inactive),8.69 µM (inactive),1.87 µM,4.21 µM (inactive),6.14 µM (inactive)
CCCCc1c2c(c(C)c3c1C(=O)OC3)Oc1ccccc1O2,6.46 µM (inactive),0.608 µM (active),1.23 µM (inactive),1.02 µM (active),0.478 µM (active),4.59 µM (inactive),0.596 µM (active),0.695 µM (active),1.22 µM (inactive),0.565 µM (active),0.815 µM (active),1.25 µM (inactive),0.369 µM (active),0.608 µM (active),> 27.5 µM (inactive),0.535 µM (active),1.73 µM (inactive),0.708 µM,0.973 µM (active),2.9 µM (inactive)

# Source: ChEMBL document CHEMBL1201862, “PubChem BioAssay data set” (2004)
